Source: patent US20130065922A1, “NOVEL AMIDES AS FUNGICIDES” (priority 2010, published 2013)

Legend:
Plasmopara viticola = experiment: whole plant or invertebrate; assay type: in vivo; settings: foliar, read-out: inhibit fungal infestation
Pythium ultimum = experiment: Pythium ultimum/Liquid Culture (Seedling Damping Off); assay type: cell-based; settings: Globisporangium ultimum; 200 ppm; liquid culture (PDB), 24° C., growth inhibition photometrically 2-3 days after application; read-out: inhibit fungal infestation
[1] = test system: Phaeosphaeria nodorum (Septoria nodorum); experiment: Phaeosphaeria nodorum (Septoria nodorum)/Wheat/Leaf Disc Preventative (Glume Blotch); assay type: in vivo; settings: Parastagonospora nodorum, foliar; 200 ppm; wheat leaf segments cv. Kanzler, preventative; 5-7 days after application; untreated control infected to over 80%; read-out: inhibit fungal infestation
[2] = test system: Blumeria graminis f. Sp. tritici (Erysiphe graminis f. Sp. tritici); experiment: Blumeria graminis f. Sp. tritici (Erysiphe graminis f. Sp. tritici)/Wheat/Leaf Disc Preventative (Powdery Mildew on Wheat); assay type: in vivo; settings: foliar, 200 ppm, wheat leaf segments cv. Kanzler, preventative, 6-8 days after application, untreated control infected to over 80%, read-out: inhibit fungal infestation
Phytophthora infestans = experiment: whole plant or invertebrate; assay type: in vivo; settings: in Solanum lycopersicum, foliar, read-out: inhibit fungal infestation

CO/N=C/C(C)(C)NC(=O)C(Oc1cc(Cl)c2ncc(OC)cc2c1)SC (stereo not drawn) [Compound 15, 2-(8-Chloro-3-methoxy-quinolin-6-yloxy)-N-(2-methoxyimino-1,1-dimethyl-ethyl)-2-methylsulfanyl-acetamide]
≥ 80%: inhibition at 200 ppm (Plasmopara viticola) | inhibition at 200 ppm (Pythium ultimum) | inhibition at 200 ppm [1] | inhibition at 200 ppm [2] | inhibition at 200 ppm (Phytophthora infestans)
124 to 125 °C: melting point
